{"source": "patent US6469028B1", "about": "“Synthesis and use of retinoid compounds having negative hormone and/or anatgonist activities” (Allergan, Inc., priority 1995, dated 2002)", "key": {"[1]": {"target": "T1, RARγ (Homo sapiens, UniProt P13631)", "T1 sequence (P13631 1-454)": "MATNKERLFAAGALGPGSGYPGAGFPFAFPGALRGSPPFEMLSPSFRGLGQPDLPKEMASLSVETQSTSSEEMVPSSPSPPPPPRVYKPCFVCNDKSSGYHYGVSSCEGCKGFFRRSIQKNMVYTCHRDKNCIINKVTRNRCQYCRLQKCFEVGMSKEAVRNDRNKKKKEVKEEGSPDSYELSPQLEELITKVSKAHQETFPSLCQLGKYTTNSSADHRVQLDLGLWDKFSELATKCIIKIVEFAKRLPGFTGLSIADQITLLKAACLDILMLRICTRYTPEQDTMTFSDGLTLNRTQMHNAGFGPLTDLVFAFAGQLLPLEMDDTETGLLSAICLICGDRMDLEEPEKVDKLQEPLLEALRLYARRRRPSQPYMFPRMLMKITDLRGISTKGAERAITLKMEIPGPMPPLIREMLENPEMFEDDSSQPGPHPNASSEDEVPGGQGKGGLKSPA", "assay": "Transactivation in CV-1 cells, ΔMTV-TREp-Luc reporter", "format": "cell-based", "design": "expressed in transfected cells; host or cells: green monkey CV-1 cells", "conditions": "10^−9 to 10^−6 M, 18 hours"}, "[2]": {"test_system": "ER-RAR-α", "assay": "Example 10: repression of basal gene activity, ERE-tk-Luc, CV-1 cells", "format": "cell-based", "conditions": "10^−9 to 10^−6 M, 18 hours, single agent", "description": "(§1) More specifically, these procedures employed the ER-RAR chimeric receptor and ERE-tk-Luc reporter system. The ERE-tk-Luc plasmid includes the region −397 to −87 of the estrogen responsive 5′-flanking region of the Xenopus vitellogenin A2 gene, described by Klein-Hitpass, et al. in Cell 46:1053-1061 (1986), ligated upstream of the HSV thymidine kinase promoter and luciferase reporter gene of plasmid tk-Luc. The ER-RAR chimeric receptors consisted of the estrogen receptor DNA binding domain fused to the “D-E-F” domain of the RARs. Those having ordinary skill in the art appreciate this “D-E-F” domain functions to bind retinoid, to provide a retinoid inducible transactivation function and to provide a contact site for heterodimerization with RXR. Thus, luciferase expression in this reporter system was dependent on activation of the transfected chimeric receptor construct.\n(§2) CV-1 cells were co-transfected with the ERE-tk-Luc reporter plasmid and either ER-RAR-α, ER-RAR-β or ER-RAR-γ expression plasmids. The ERE-tk-Luc plasmid contained the estrogen-responsive promoter element of the Xenopus laevis vitellogenin A2 gene and was substantially identical to the reporter plasmid described by Klein-Hitpass et al. in Cell 46:1053 (1986), except that the CAT reporter gene was substituted by a polynucleotide sequence encoding luciferase. The ER-RAR-α, ER-RARβ and ER-RAR-γ chimeric receptor-encoding polynucleotides employed in the co-transfection have been described by Graupner et al. in Biochem. Biophys. Res. Comm. 179:1554 (1991). […] Calcium phosphate transfections were carried out exactly as described in Example 6 using 0.5 μg/well of reporter plasmid and either 0.05 μg, 0.10 μg or 0.2 μg/well of receptor plasmid. […] Cell lysates and luciferase activity measurements were performed as described in Example 6."}, "[3]": {"test_system": "ER-RAR-γ", "assay": "Example 10: repression of basal gene activity, ERE-tk-Luc, CV-1 cells", "format": "cell-based", "conditions": "10^−9 to 10^−6 M, 18 hours, single agent", "description": "as §1, §2"}, "[4]": {"test_system": "ER-RAR-β", "assay": "Example 10: repression of basal gene activity, ERE-tk-Luc, CV-1 cells", "format": "cell-based", "conditions": "10^−9 to 10^−6 M, 18 hours, single agent", "description": "as §1, §2"}, "[5]": {"test_system": "patients having retinal detachment resulting from PVR", "conditions": "40 mg oral AGN 193109 + 4 mg oral 13-cis retinoic acid twice daily for four weeks"}, "[6]": {"test_system": "TPA-induced AP-1 activity", "assay": "Example 15: anti-AP-1 activity, Str-AP1-CAT in HeLa cells", "format": "cell-based", "procedure": "HeLa cells were transfected with 1 μg of Str-AP1-CAT using LIPOFECTAMINE according to the method described by Nagpal et al. in J. Biol. Chem. 270:923 (1995). Transfected cells were treated with AGN 193109 alone (10^−9 to 10^−7 M), 1,25-dihydroxyvitamin D3 alone (10^−12 to 10^−7 M) or 1,25-dihydroxyvitamin D3 (10^−12 to 10^−7 M) in the presence of 10^−8 M AGN 193109."}, "[7]": {"test_system": "ER-RXR-α", "assay": "Example 11: ER-RXR-α alone, ERE-tk-Luc, CV-1 cells"}, "[8]": {"target": "T2, RAR-α and RXR-α with DR-5 RARE probe (Homo sapiens, UniProt P10276)", "T2 construct": "made in house; host or cells: reticulocyte lysate in vitro transcription-translation", "T2 sequence (P10276 whole entry)": "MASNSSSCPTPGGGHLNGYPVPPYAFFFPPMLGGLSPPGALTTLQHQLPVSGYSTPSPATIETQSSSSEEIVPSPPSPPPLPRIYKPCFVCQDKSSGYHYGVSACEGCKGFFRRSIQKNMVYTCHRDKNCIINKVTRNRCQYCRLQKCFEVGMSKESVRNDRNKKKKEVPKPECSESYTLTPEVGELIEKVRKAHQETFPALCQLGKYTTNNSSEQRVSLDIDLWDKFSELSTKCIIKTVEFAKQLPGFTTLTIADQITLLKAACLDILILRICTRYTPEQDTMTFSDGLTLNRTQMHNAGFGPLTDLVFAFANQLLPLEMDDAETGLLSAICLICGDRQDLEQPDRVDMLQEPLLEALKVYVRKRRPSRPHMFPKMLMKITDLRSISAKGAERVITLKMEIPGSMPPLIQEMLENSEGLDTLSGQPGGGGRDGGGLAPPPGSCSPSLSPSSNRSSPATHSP", "T2 sequence (P19793 whole entry partner)": "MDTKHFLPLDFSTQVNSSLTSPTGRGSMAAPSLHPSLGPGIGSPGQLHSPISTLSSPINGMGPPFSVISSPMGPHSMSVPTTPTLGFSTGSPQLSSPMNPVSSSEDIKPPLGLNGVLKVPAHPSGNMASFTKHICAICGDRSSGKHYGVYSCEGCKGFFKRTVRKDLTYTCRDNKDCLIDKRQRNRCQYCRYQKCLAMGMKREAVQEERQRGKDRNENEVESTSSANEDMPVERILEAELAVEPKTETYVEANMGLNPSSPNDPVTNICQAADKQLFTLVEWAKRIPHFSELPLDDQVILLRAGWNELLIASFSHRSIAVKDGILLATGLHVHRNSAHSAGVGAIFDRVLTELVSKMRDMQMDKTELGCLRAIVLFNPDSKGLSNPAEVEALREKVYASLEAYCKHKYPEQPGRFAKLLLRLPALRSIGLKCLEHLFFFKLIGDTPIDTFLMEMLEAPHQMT", "assay": "Example 9: gel shift analysis", "format": "biochemical", "conditions": "prebound with AGN 193109 (10^−6 M)", "description": "In vitro translated RAR-α was produced essentially as described under Example 8, except that ^35S-labeled methoinine was omitted. In vitro translated RXR-α was similarly produced using a pBluescript(II)(SK)-based vector containing the RXR-α cDNA described by Mangelsdorf, et al. in Nature 345:224-229 (1990) as the template for generating in vitro transcripts. […] The binding mixture was electrophoresed on a non-denaturing polyacrylamide gel and autoradiographed according to standard laboratory procedures. A single retarded species appearing on the autoradiograph that was common to all the lanes on the gel represented an undefined probe-binding factor present in the reticulocyte lysate. Only the RAR/RXR combination gave rise to a retinoid receptor-specific retarded species. Neither RAR alone nor RXR alone bound the probe to produce this shifted species."}, "[9]": {"target": "T3, RARβ (Homo sapiens, UniProt P10826)", "T3 sequence (P10826 1-448 isoform P10826-2)": "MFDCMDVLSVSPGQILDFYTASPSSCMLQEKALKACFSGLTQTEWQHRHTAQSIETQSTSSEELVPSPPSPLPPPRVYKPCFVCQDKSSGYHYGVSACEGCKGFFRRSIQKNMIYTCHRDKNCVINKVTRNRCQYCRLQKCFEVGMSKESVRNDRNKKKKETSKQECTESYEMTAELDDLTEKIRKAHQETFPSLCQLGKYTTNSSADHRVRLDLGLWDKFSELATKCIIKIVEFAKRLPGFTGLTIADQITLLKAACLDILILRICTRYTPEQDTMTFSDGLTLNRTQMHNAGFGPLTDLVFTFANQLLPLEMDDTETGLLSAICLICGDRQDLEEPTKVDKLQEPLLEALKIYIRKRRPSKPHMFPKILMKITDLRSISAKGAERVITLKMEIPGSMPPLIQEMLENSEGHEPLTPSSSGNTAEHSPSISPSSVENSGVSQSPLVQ", "assay": "[3H]-ATRA displacement assay, baculovirus expressed receptor", "format": "binding", "design": "made in house; host or cells: baculovirus expression system", "conditions": "Table 11"}}, "data": [{"smiles": "Cc1ccc(C2=CCC(C)(C)c3ccc(C#Cc4ccc(C(=O)O)cc4)cc32)cc1", "note": "[Compound 60, 4-[(5,6-dihydro-5,5-dimethyl-8-(4-methylphenyl)-2-naphthalenyl)ethynyl]benzoic acid]", "values": [{"measurement": "EC50 (nM) RAR-γ", "setting": "[1]", "value": "No Activity"}, {"measurement": "luciferase reporter activity", "setting": "[2]", "value": "substantially unaffected"}, {"measurement": "luciferase reporter activity", "setting": "[3]", "value": "dose responsive decrease in luciferase reporter activity"}, {"measurement": "luciferase reporter activity", "setting": "[4]", "value": "dose responsive decrease in luciferase reporter activity"}, {"measurement": "therapeutic outcome versus 40 mg oral 13-cis retinoic acid", "setting": "[5]", "value": "equal to or better than"}, {"measurement": "anti-AP-1 activity", "setting": "[6]; AGN 193109 alone, 10^−9 to 10^−7 M", "value": "no detectable anti-AP-1 activity"}, {"measurement": "anti-AP-1 activity of 1,25-dihydroxyvitamin D3", "setting": "[6]; in the presence of 10^−8 M AGN 193109", "value": "anti-AP-1 activity was detectable at 10^−10 and 10^−9 M 1,25-dihydroxyvitamin D3"}, {"measurement": "luciferase expression levels", "setting": "[7]; cells transfected only with ER-RXR-α, AGN 193109 as high as 10^−6 M", "value": "approximately 8,000 rlu"}, {"measurement": "luciferase activity", "setting": "[7]; reporter and chimeric receptor without RAR-γ-VP-16", "value": "did not exhibit any effect on luciferase activity"}, {"measurement": "RAR/RXR retarded species on DR-5 RARE probe", "setting": "[8]", "value": "did not diminish this interaction"}, {"measurement": "Kd", "setting": "[9]", "value": 2, "unit": "nM"}]}]}
